Measurements from US20160067162A1, “PHOTOPROTECTIVE COMPOUNDS, COMPOSITIONS INCLUDING SAME AND USES THEREOF” (UNIVERSITE DE RENNES 1, priority 2013, published 2016).

What was measured:
Assay type in all cases: physicochemical
[1] = SPF measurement, Protocol II (Nantes): O/W emulsion on PMMA plate, transmission with integrating sphere
Description: The SPF measurement is carried out according to the protocol described in Lohézic-Le Dévéhat F., Legouin B., Couteau C., Boustie J., Coiffard L. “Lichenic extracts and metabolites as UV filters” Journal of Photochemistry and Photobiology B: Biology 120 (2013) 17-28:
An emulsion having the following formulation is used: […]
The two phases are prepared separately. The hydrophilic phase is then added, with stirring, to the lipophilic phase. The products are finally incorporated at 1% into this O/W emulsion. 30 mg of the whole mixture are distributed over the entire surface area (25 cm^2) of a PMMA plate using a finger store. After spreading, 15 mg remain on the finger store. Three plates are prepared per product and nine measurements are carried out. The transmission measurements between 290 and 400 nm for the SPF and between 320 and 400 nm for the UVA-PF are carried out using a spectrophotometer equipped with an integrating sphere (UV Transmittance analyzer UV1000S, Labsphere, North Sutton, US).
(§1) The SPF and UVA-PF values are, for the two protocols, calculated from the following equations: […]
(§2) where Eλ is the erythemogenic effect of the radiation at the wavelength λ; Sλ is the spectral solar irradiance at the wavelength λ and Tλ is the spectral transmittance of the product at the wavelength λ, λc is the critical wavelength which corresponds to the wavelength at which 90% of the area under the curve (AUC) is integrated between 290 and 400 nm. The UVA/UVB ratio corresponds more specifically to the ratio of the area under the curve between 315 and 400 nm to the area under the curve between 280 and 315 nm.

[2] = SPF measurement, Protocol I (Rennes): simplified O/W emulsion, UV spectrum 200-400 nm
Description: The SPF measurement is carried out according to the following protocol described in Le Dévéhat F., Malargé A., Couteau C., Coiffard L., Legouin B. “Evaluation of a new UV-filter screening method”, 4th symposium of the AFERP “Biodiversity, chimie des substances naturelles et medicaments” [“Biodiversity, chemistry of natural substances and medicaments”] and 3rd Franco-Pakistani symposium, Besançon (France), Jul. 16-17-18, 2010. A solution of each product dissolved in dimethyl sulfoxide is incorporated at 10% into a simplified emulsion of oil-in-water (O/W) type consisting of liquid paraffin, water and SDS at 10%, the whole mixture taken up in absolute ethanol. The UV spectrum of each solution is recorded between 200 nm and 400 nm in a 10 mm quartz cell on a Uvikon 931 UV-vis spectrophotometer and measured in comparison with a control 10% emulsion solution.
as §1, §2

[3] = UV spectrum measurement in CHCl3 (λmax, molar extinction coefficient)
Description: The products are diluted in CHCl3 so as to obtain a solution at 10^−4M. The UV spectra are measured using a Uvikon 931 UV-vis spectrophotometer, Serlabo Technologies, Entraigues sur la Sorgue, France. This UV spectrum makes it possible to determine the molar extinction coefficient (mol^−1 L cm^−1) at the λmax by virtue of the Beer-Lambert law: c=A/l×C;
A=value of the absorbance at the λmax; l=length of the cuvette in cm (l=1);
C=concentration of the solution=1×10^−4 mol/l. The theoretical λmax was determined for certain products by DFT calculation.

λmax exp ([3]; 10^−4 M in CHCl3): 303 nm
ε (molar extinction coefficient at the λmax) ([3]; 10^−4 M in CHCl3, 1 cm cuvette): 12361 L/mol/cm
SMILES: CCCC1=CC(=O)CCN1 [Compound 5, 6-propyl-2,3-dihydropyridin-4(1H)-one]
λc (p.II) ([1]; critical wavelength): 335 nm
SPF (p.II, at 1%) ([1]; product at 1% in O/W emulsion, PMMA plate, 290-400 nm): 11.18 ± 1.03
Colipa UVA-PF (p.II, at 1%) ([1]; product at 1%, 320-400 nm): 2.58 ± 0.07
λc p.I ([2]; critical wavelength, protocol I): 328 nm
Colipa UVA-PF p.I, at 10% ([2]; protocol I, product at 10%): 1.66 ± 0.003
SPF p.I, at 10% ([2]; protocol I, product at 10% in simplified O/W emulsion): 12.17 ± 0.09
UVA/UVB ([2]; ratio of area under the curve 315-400 nm to 280-315 nm): 0.36 ± 0.00
